Data reported in patent publication US20040248232A1, “Method for treating Alzheimer's dementia” (priority 2003, published 2004).
Entries after “also recorded” stand apart in the source; their conditions may differ. Values belong to the molecule of their own block, whether it stands above or below them. Non-standard residues stand in square brackets, D forms with d. Residues, ends and D or L forms follow the SMILES beside them. *: point of attachment. Sta = CC(C)C[C@H](N)[C@@H](O)CC(=O)O; Isovaleryl = CC(C)CC(=O)*

Experiments:
[1] = tested on: primary chromaffin cell cultures; assay: Aβ-peptide secretion by chromaffin cells (RIA of Aβ1-40 in media); assay type: cell-based; conditions: 50 mM, 15 minutes
Method: Primary chromaffin cell cultures containing approximately 2 million cells in each culture were produced using established methods (Hook et al., ibid.; and Tezapsidis et al., ibid.). Exocytosis of the contents of the vesicles in such cells was induced by exposing the cells to KCl (50 mM) or nicotine (10 μM) for 15 minutes.

[2] = target: T1, Peak I β-secretase endoprotease activity (cathepsin L) (Bos taurus, UniProt P25975); assay: Protease inhibitors of β-secretase endoprotease activity in Peak I; assay type: biochemical, bovine; conditions: for Peak I (%): % of control (no inhibitor); for inhibition of Peak I activity, in words: text summary of Table IV; for β-secretase activity of Peak I: inhibitor at 1 μM (Example XVI)
T1 construct: from tissue; host or cells: bovine adrenal medulla chromaffin vesicles; Con A then Sephacryl S200, Peak I
Method: The effect of the aminopeptidase M and the basic pH buffer used in the β-secretase endoprotease activity assay was determined. […] Three assays were conducted, one with aminopeptidase M in its basic pH buffer, another with the basic pH buffer but not aminopeptidase M, and a third without either the buffer or the aminopeptidase M. Briefly, the chromaffin vesicle lysate and the substrate Z★Val-Lys-Met-MCA were incubated for 30 minutes-at a specified pH and the resulting fluorescence measured. The aminopeptidase M in the basic pH buffer or:.that buffer alone (final concentration of 75 mM Tris-HCl pH 8.2) was added to the assay and incubated an additional 60 minutes at 37° C.
The protease inhibitor was added to each assay at the start of the reaction at the appropriate concentration. The extent of inhibition was expressed as a percentage of the activity without the inhibitor (control).

[3] = target: T2, Peak II β-secretase endoprotease activity (cathepsin B) (Bos taurus, UniProt P07688); assay: Protease inhibitors of β-secretase endoprotease activity in Peak II; assay type: biochemical, bovine; conditions: for Peak II (%): % of control (no inhibitor); for inhibition of Peak II activity, in words: text summary of Table IV
T2 construct: from tissue; host or cells: bovine adrenal medulla chromaffin vesicles; Con A, Sephacryl S200 (Peak II), Mono Q (II-A, II-B)

[4] = tested on: 27 kDa and 31 kDa cysteine protease bands of Peak I; assay: 125I-DCG-04 affinity labeling of Peak I; assay type: binding, bovine; conditions: inhibitor 1 μM
Method: An aliquot of Peak I was incubated at room temperature with 125I-DCG-04 for 30 minutes, and the affinity labeled β-secretase was then subjected to one-dimensional SDS-PAGE followed by electrophoretic transfer of proteins to nitrocellulose membranes, and 125I-DCG-04 labeled proteins were detected with streptavidin-HRP, as described previously (Greenbaum et al. Chem. Biol. 7:569-81, 2000, Greenbaum et al., Chemistry and Biology 10, 1085-1094, 2002; Greenbaum et al., Mol. Cell. Proteomics, 1:60-68, 2002).
The 31 kDa band resembles the molecular weight of the cysteine protease cathepsin B (Barrett et al., “Handbook of Proteolytic Enzymes,” Pub. Academic Press, SanDiego, pp 609-617, 1998; and Greenbaum et al., Mol. Cell. Proteomics, 1:60-68, 2002). The selective cathepsin B inhibitor, CA-074, was used to determine whether the 27 kDa or 31 kDa bands were responsible for the β-secretase activity of Peak I (Yamamoto et al., J. Mol. Biol. 227:942-944, 1992; Gour-Salin et al., J. Med. Chem. 36:720-725, 1993; Bogyo et al., Chem Biol. 1:27-38, 2000).

[5] = tested on: β-secretase endoprotease activity in chromaffin vesicle lysate; assay: Protease inhibitors of β-secretase endoprotease activity in chromaffin vesicle lysate (Z*Val-Lys-Met-MCA cleavage, AMC fluorescence); assay type: biochemical, bovine; conditions: for % CONTROL: pH 5.5, with aminopeptidase M, activity as % of activity without inhibitor; for inhibition of β-secretase endoprotease activity in chromaffin vesicle lysate, in words: text summary of Table II
Method: (§1) The β-secretase endoprotease activity was identified by incubating the chromaffin vesicle lysate (2-10 μl of 10-20 mg protein/ml) with the Z★Val-Lys-Met-MCA substrate (100 μM final concentration) and detecting AMC fluorescence. The chromaffin vesicle lysate was prepared as described in Example I. The endoprotease activity was determined as a function of pH by varying the pH of the incubation solution between 3.0 to 8.0 in 0.5 pH increments. Citric acid, sodium phosphate, and Tris-HCl buffers (100 mM final concentration) were used to adjust the pH of the incubation solutions between 3.0 to 5.5, 6.0 to 7.5, and 8.0, respectively. Duplicate samples at each pH increment (100 μl each) were distributed among 22 wells in a covered microtiter well plate and incubated at 37° C. for 8 hours in a water bath.
As discussed above, endoprotease cleavage between the Met-MCA bond in the Z★Val-Lys-Met-MCA substrate produces fluorescent AMC, but endoprotease cleavage between the Lys-Met or Val-Lys bonds in that substrate produces non-fluorescent Lys-Met-MCA and Met-MCA peptides. To insure that the latter two endoprotease cleavages were detected, aminopeptidase M (20 μg/ml final concentration, BOEHRINGER […]) was added to each incubation solutions to produce fluorescent AMC from the Lys-Met-MCA and Met-MCA peptides. Prior to adding the aminopeptidase M, each incubation solution was adjusted to a pH 8.3 using Tris-HCl because aminopeptidase M functions at a basic pH. A second incubation at 37° C. for 1 hour in the water bath was conducted to complete the aminopeptidase M reaction.
Upon termination of that second incubation, AMC fluorescence was assayed using a fluorometer (IDEXX fluorometer, FCA Fluorescence Concentration Analyzer, cat. no. 10-105-2, BAXTER HEALTH CARE CORP., Mundelein, Ill.) at excitation and emission wavelengths of 365 and 450 nm, respectively. Standard AMC concentrations were also measured to quantitate relative fluorescence with the molar amount (pmol) of AMC generated by the secretase. The resulting AMC fluorescence reflects the endoprotease activity in cleaving either the Met-MCA, Lys-Met. and Val-Lys bonds in the Z★Val-Lys-Met-MCA substrate.
(§2) The effect of the reducing agent dithiothreitol (DTT) on β-secretase endoprotease activity was determined using the assay described in Example III. Briefly, the lysed vesicles were incubated with the substrate Z★Val-Lys-Met-MCA in the presence or absence of 1 mM DTT and the resulting fluorescence plotted as a function of pH. Both with and without DTT, β-secretase endoprotease activity was detected and in both cases that activity had pH optimum of about 4.0 to 6.0, which is consistent with the intravesicular pH of chromaffin vesicles.
The effect of the aminopeptidase M and the basic pH buffer used in the β-secretase endoprotease activity assay was determined. The assay was conducted as described in Example VIII with DTT. Three assays were conducted, one with aminopeptidase M in its basic pH buffer, another with the basic pH buffer but not aminopeptidase M, and a third without either the buffer or the aminopeptidase M. Briefly, the chromaffin vesicle lysate and the substrate Z★Val-Lys-Met-MCA were incubated for 30 minutes-at a specified pH and the resulting fluorescence measured. The aminopeptidase M in the basic pH buffer or:.that buffer alone (final concentration of 75 mM Tris-HCl pH 8.2) was added to the assay and incubated an additional 60 minutes at 37° C. […] The assay conducted with aminopeptidase M and its basic pH buffer and that of the control assay having just the basic pH buffer produced approximately the same amount of fluorescence.
The effect of various protease inhibitors on β-secretase endoprotease activity in the lysate was determined at the pH optimum 5.5 in the assay described in Example IX containing aminopeptidase M. Protease inhibitors specific for various protease classes were used. […]

[6] = tested on: cathepsin activity in brain; conditions: administered to animals; cited from earlier work
[7] = tested on: β-secretase endoprotease activity in chromaffin vesicle lysate; assay: Effect of reducing agents on β-secretase endoprotease activity in chromaffin vesicles; assay type: biochemical, bovine; conditions: 1 mM; lysed vesicles, Z*Val-Lys-Met-MCA
Method: as §1, §2

T1 sequence (P25975 118-334): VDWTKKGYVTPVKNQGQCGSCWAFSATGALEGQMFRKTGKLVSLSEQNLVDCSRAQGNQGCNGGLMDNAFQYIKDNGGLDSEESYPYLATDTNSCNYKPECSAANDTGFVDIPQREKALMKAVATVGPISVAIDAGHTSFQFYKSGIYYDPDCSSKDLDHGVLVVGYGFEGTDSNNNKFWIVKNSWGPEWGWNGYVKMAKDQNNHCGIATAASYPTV

SMILES: [Cl-].[K+] [KCl, potassium chloride]
increase in the concentration of Aβ1-40 peptide in the media relative to control media [1]: approximately 350 fold

SMILES: CCCNC(=O)[C@H]1O[C@@H]1C(=O)N[C@H](C(=O)N1CCC[C@H]1C(=O)O)[C@@H](C)CC [CA-074]
β-secretase activity of Peak I [2]: not affected
125I-DCG-04 labeling of Peak I bands in the presence of the inhibitor [4]: labeling of only the 27 kDa band

SMILES: CC(C)CC(=O)N[C@H](C(=O)N[C@H](C(=O)N[C@@H](CC(C)C)[C@@H](O)CC(=O)N[C@@H](C)C(=O)N[C@@H](CC(C)C)[C@@H](O)CC(=O)O)C(C)C)C(C)C [Pepstatin A] (Isovaleryl-VV[Sta]A[Sta]-OH)
% CONTROL ([5]; inhibitor 10 μM): 78%
inhibition of β-secretase endoprotease activity in chromaffin vesicle lysate, in words [5]: slightly inhibited
Peak I (%) ([2]; inhibitor 100 μM): 85%
inhibition of Peak I activity, in words [2]: did not significantly inhibit; also recorded: slightly inhibited
Peak II (%) ([3]; inhibitor 100 μM): 132%
inhibition of Peak II activity, in words [3]: did not significantly inhibit; also recorded: increased the activity

SMILES: CC(=O)N[C@@H](CC(C)C)C(=O)N[C@@H](CC(C)C)C(=O)N[C@H](C=O)CCCNC(=N)N [Leupeptin]
% CONTROL ([5]; inhibitor 100 μM): 0%
inhibition of β-secretase endoprotease activity in chromaffin vesicle lysate, in words [5]: completely inhibited
Peak I (%) ([2]; inhibitor 100 μM): 0%
inhibition of Peak I activity, in words [2]: maximally inhibited; also recorded: completely inhibited
Peak II (%) ([3]; inhibitor 100 μM): 0%
inhibition of Peak II activity, in words [3]: maximally inhibited; also recorded: completely inhibited

SMILES: CC(C)CCNC(=O)[C@H](CC(C)C)NC(=O)[C@H]1O[C@@H]1C(=O)O [E64c]
% CONTROL ([5]; inhibitor 10 μM): 0%
inhibition of β-secretase endoprotease activity in chromaffin vesicle lysate, in words [5]: completely inhibited
Peak I (%) ([2]; inhibitor 10 μM): 0%
β-secretase activity of Peak I [2]: completed inhibited
inhibition of Peak I activity, in words [2]: maximally inhibited; also recorded: completely inhibited
Peak II (%) ([3]; inhibitor 10 μM): 0%
inhibition of Peak II activity, in words [3]: maximally inhibited; also recorded: completely inhibited
cathepsin activity in brain [6]: effectively block

SMILES: O=S(=O)(F)Cc1ccccc1 [PMSF, phenylmethylsulfonyl fluoride]
% CONTROL ([5]; inhibitor 100 μM): 58%
inhibition of β-secretase endoprotease activity in chromaffin vesicle lysate, in words [5]: significantly inhibited
inhibition of Peak I activity, in words [2]: did not significantly inhibit; also recorded: only slightly inhibited
inhibition of Peak II activity, in words [3]: did not significantly inhibit; also recorded: only slightly inhibited

SMILES: CC(C)C[C@H](NC(=O)[C@@H](NC(=O)N[C@@H](Cc1ccccc1)C(=O)O)[C@@H]1CCN=C(N)N1)C(=O)N[C@H](C=O)Cc1ccccc1 [Chymostatin]
% CONTROL ([5]; inhibitor 10 μM): 11%
inhibition of β-secretase endoprotease activity in chromaffin vesicle lysate, in words [5]: greatly inhibited
Peak I (%) ([2]; inhibitor 10 μM): 0%
inhibition of Peak I activity, in words [2]: maximally inhibited
Peak II (%) ([3]; inhibitor 10 μM): 35%
inhibition of Peak II activity, in words [3]: maximally inhibited

SMILES: O=C(O)c1cc[c]([Hg][OH])cc1 [pHMB]
% CONTROL ([5]; inhibitor 1 mM): 35%
inhibition of β-secretase endoprotease activity in chromaffin vesicle lysate, in words [5]: inhibited
inhibition of β-secretase endoprotease activity in chromaffin vesicle lysate, in words ([5]; listed as PHMB): greatly inhibited
Peak I (%) ([2]; inhibitor 1 mM): 67%
inhibition of Peak I activity, in words [2]: slightly inhibited; also recorded: inhibited
Peak II (%) ([3]; inhibitor 1 mM): 68%
inhibition of Peak II activity, in words [3]: slightly inhibited; also recorded: inhibited

Results, then the molecule that gave them:

Peak I (%) ([2]; inhibitor 500 μM): 31%
inhibition of Peak I activity, in words [2]: significantly inhibited
Peak II (%) ([3]; inhibitor 500 μM): 72%
inhibition of Peak II activity, in words [3]: only slightly inhibited
SMILES: c1cnc2c(c1)ccc1cccnc12 [1,10 Phenanthroline]

% CONTROL ([5]; inhibitor 1 mM): 100%
Peak I (%) ([2]; inhibitor 1 mM): 99%
Peak II (%) ([3]; inhibitor 1 mM): 138%
SMILES: O=C(O)CN(CCN(CC(=O)O)CC(=O)O)CC(=O)O [EDTA, ethylenediaminetetraacetic acid]

% CONTROL ([5]; inhibitor 1 mM): 99%
Peak I (%) ([2]; inhibitor 1 mM): 108%
Peak II (%) ([3]; inhibitor 1 mM): 142%
SMILES: O=C(O)CN(CCOCCOCCN(CC(=O)O)CC(=O)O)CC(=O)O [EGTA]

increase in the β-secretase endoprotease activity [7]: approximately 5 fold
SMILES: O[C@H](CS)[C@H](O)CS (racemic) [DTT, dithiothreitol]
